# Assay results as given in the Kinase Knowledgebase extract (Sharma et al. 2016).
# Key:
# PIK3CA (human) [1] = target: PIK3CA (human) (UniProt P42336); experiment: Inhibition of PIK3CA Kinase Activity
# PIK3CA (human) [2] = target: PIK3CA (human) (UniProt P42336); experiment: Inhibition of A2780 Cell Proliferation
# PIK3CA (human), sequence (P42336 whole entry, looked up): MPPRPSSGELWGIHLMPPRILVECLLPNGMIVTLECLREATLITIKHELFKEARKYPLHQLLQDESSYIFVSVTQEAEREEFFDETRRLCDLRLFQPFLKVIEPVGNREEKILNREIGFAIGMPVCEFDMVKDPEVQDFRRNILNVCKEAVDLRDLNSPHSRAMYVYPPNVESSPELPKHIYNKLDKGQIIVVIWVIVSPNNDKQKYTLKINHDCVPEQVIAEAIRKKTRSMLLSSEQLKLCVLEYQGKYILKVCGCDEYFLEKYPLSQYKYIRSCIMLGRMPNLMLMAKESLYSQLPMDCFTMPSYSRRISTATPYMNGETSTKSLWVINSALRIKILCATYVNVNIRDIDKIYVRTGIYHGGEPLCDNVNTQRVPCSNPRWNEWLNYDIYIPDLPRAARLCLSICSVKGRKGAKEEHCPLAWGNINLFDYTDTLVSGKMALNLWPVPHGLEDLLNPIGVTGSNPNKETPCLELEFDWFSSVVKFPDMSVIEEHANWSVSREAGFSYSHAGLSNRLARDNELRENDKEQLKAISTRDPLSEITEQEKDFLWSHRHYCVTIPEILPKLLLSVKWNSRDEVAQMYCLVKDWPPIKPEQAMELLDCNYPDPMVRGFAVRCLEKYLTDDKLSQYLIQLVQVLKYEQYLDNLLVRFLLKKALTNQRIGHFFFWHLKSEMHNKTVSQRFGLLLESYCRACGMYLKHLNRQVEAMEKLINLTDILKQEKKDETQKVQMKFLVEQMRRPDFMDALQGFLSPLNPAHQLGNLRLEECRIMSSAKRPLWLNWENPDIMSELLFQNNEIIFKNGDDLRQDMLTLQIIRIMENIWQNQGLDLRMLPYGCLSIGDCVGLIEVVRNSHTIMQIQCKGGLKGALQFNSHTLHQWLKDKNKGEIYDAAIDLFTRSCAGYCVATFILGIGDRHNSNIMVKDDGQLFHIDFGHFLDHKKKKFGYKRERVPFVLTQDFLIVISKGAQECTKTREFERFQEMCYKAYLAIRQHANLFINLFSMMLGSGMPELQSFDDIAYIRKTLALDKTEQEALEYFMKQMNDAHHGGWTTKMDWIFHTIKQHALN
Structure (SMILES),IC50 (PIK3CA (human) [1]),EC50 (PIK3CA (human) [2])
Cc1ccc(C2CCCN2C(=O)Nc2cn3cc(-c4cnc(N)c(C(F)(F)F)c4)ccc3n2)s1 (stereo unspecified),< 1000 nM,< 25000 nM
CC(=O)Nc1nc2ccc(-c3cnc(N)c(OCC(F)(F)F)n3)cc2s1,< 1000 nM,< 1000 nM
CC(=O)Nc1cn2cc(-c3cnc(N)c(-c4ccccc4C(F)(F)F)c3)ccc2n1,< 1000 nM,< 10000 nM
COC[C@@H]1CCCN1C(=O)Nc1cn2cc(-c3cnc(N)c(C(F)(F)F)c3)ccc2n1,< 1000 nM,< 25000 nM
Nc1ncc(-c2ccc3nc(NC(=O)[C@@H]4CCCN4)cn3n2)cc1C(F)(F)F,< 1000 nM,< 10000 nM
Nc1ncc(-c2ccc3nc(NC(=O)C(F)(F)F)cn3c2)cn1,< 1000 nM,< 25000 nM
CNC(=O)Nc1nc2ccc(-c3ccc(N)nc3)cc2s1,< 1000 nM,< 10000 nM
CC(=O)Nc1cn2nc(-c3cnc(N)c(C(=O)NCCO)c3)ccc2n1,< 1000 nM,< 25000 nM
NC(=O)N1CC[C@H]1C(=O)Nc1cn2cc(-c3cnc(N)c(C(F)(F)F)c3)ccc2n1,< 1000 nM,< 25000 nM
CC(=O)Nc1nc2ccc(-c3cnc(N)nc3C(F)(F)F)cc2s1,< 1000 nM,< 25000 nM
CC(=O)Nc1cn2cc(-c3cnc(N)c(C(=O)N4CCCC4)c3)ccc2n1,< 1000 nM,< 25000 nM
CC(C)(C)OC(=O)N1CCC1C(=O)Nc1cn2cc(-c3cnc(N)c(OCC(F)(F)F)n3)ccc2n1 (stereo unspecified),< 1000 nM,< 25000 nM
COCCOc1nc(-c2ccc3nc(NC(=O)COC)cn3c2)cnc1N,< 1000 nM,< 10000 nM
CC(=O)Nc1cn2cc(-c3cnc(N)c(-c4cccc(C(F)(F)F)c4)c3)ccc2n1,< 1000 nM,< 1000 nM
Nc1ncc(-c2ccc3nc(NC(=O)c4ccccn4)cn3c2)cc1C(F)(F)F,< 1000 nM,< 25000 nM
COCC(=O)Nc1cn2cc(-c3cnc(N)c(OCC(F)(F)F)n3)ccc2n1,< 1000 nM,< 1000 nM
Nc1ncc(-c2ccc3nc(NC(=O)COCc4ccccc4)cn3n2)cc1C(F)(F)F,< 1000 nM,< 10000 nM

Structure (SMILES),IC50 (PIK3CA (human) [1]),EC50 (PIK3CA (human) [2])
CC(=O)Nc1cn2nc(-c3cnc(N)c(-c4ccccc4F)c3)ccc2n1,< 1000 nM,< 1000 nM
CCC(=O)Nc1cn2cc(-c3cnc(N)c(OC)n3)ccc2n1,< 1000 nM,< 10000 nM
Nc1ccc(-c2ccc3nc(NC(=O)CN4CCOCC4)sc3c2)cn1,< 1000 nM,< 25000 nM
CC(=O)Nc1cn2cc(-c3cnc(N)c(C(=O)NCCN4CCCC4)n3)ccc2n1,< 1000 nM,< 1000 nM
Nc1ncc(-c2ccc3nc(NC(=O)c4cccc(Cl)c4)cn3c2)cc1C(F)(F)F,< 1000 nM,< 10000 nM
CC(=O)Nc1cn2cc(-c3cnc(N)c(C)n3)ccc2n1,< 1000 nM,< 10000 nM
CC(=O)N1CCC[C@H]1C(=O)Nc1cn2cc(-c3cnc(N)c(C(F)(F)F)c3)ccc2n1,< 1000 nM,< 25000 nM
C/C=C\c1c(NC(C)=O)nc2ccc(-c3cnc(N)c(C(F)(F)F)c3)cn12,< 1000 nM,< 25000 nM
Nc1ncc(-c2ccc3nc(NC(=O)N4CCC[C@H]4CO)cn3c2)cc1C(F)(F)F,< 1000 nM,< 10000 nM
CC(=O)Nc1cn2cc(-c3cnc(N)c(-c4ccccc4)n3)ccc2n1,< 1000 nM,< 10000 nM
CC(=O)Nc1cn2cc(-c3cnc(N)c(Cl)c3)ccc2n1,< 1000 nM,< 10000 nM
COc1cccc(-c2cc(-c3ccc4nc(NC(C)=O)cn4n3)cnc2N)n1,< 1000 nM,< 10000 nM
CC(C)C(=O)Nc1cn2cc(-c3cnc(N)c(OCC(F)(F)F)n3)ccc2n1,< 1000 nM,< 10000 nM
CC(=O)Nc1cn2c(C)c(-c3cnc(N)c(C(F)(F)F)c3)ccc2n1,< 1000 nM,< 10000 nM
Nc1ncc(-c2ccc3nc(NC(=O)CN4CCCCC4)cn3c2)nc1OCC(F)(F)F,< 1000 nM,< 1000 nM
CC(=O)Nc1cn2cc(-c3cnc(N)cc3F)ccc2n1,< 1000 nM,< 25000 nM
